The results in this text go back to ChEMBL document CHEMBL4261509, “Insight into the complete substrate-binding pocket of ThiT by chemical and genetic mutations” (Medchemcomm, 2017).

In test [1] the target is T1, Thiamine transporter ThiT (Lactococcus lactis subsp. cremoris (strain MG1363), UniProt A2RI47).
T1 sequence (A2RI47 whole entry): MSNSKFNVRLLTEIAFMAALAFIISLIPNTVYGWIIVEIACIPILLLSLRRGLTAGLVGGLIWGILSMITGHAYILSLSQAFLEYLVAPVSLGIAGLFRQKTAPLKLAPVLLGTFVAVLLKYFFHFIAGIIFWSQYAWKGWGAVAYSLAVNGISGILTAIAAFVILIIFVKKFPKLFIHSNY
Kind of test: Binding affinity to wild-type Lactococcus lactis MG1363 N-terminal His8-tagged ThiT expressed in Lactococcus lactis NZ9000 incubated for 10 secs measured over 15 secs by fluorescence spectrophotometric method.

Test [2] deals with T1, Thiamine transporter ThiT. Kind of test: Binding affinity to wild-type Lactococcus lactis MG1363 N-terminal His8-tagged ThiT expressed in Lactococcus lactis NZ9000 by isothermal calorimetric titration method. In general terms: Isothermal titration calorimetry measures the heat released or taken up as one component is titrated into another.
Test [3] deals with Thiamine transporter ThiT (Lactococcus lactis subsp. cremoris (strain MG1363), UniProt A2RI47, E84Q). Kind of test: Binding affinity to Lactococcus lactis MG1363 N-terminal His8-tagged ThiT Glu84Gln mutant expressed in Lactococcus lactis NZ9000 by isothermal calorimetric titration method.
Test [4] concerns the target Thiamine transporter ThiT (Lactococcus lactis subsp. cremoris (strain MG1363), UniProt A2RI47, H125A). Kind of test: Binding affinity to Lactococcus lactis MG1363 N-terminal His8-tagged ThiT His125Ala mutant expressed in Lactococcus lactis NZ9000 by isothermal calorimetric titration method.
In test [5] the target is Thiamine transporter ThiT (Lactococcus lactis subsp. cremoris (strain MG1363), UniProt A2RI47, E84D). The test can be described thus: Binding affinity to Lactococcus lactis MG1363 N-terminal His8-tagged ThiT Glu84Asp mutant expressed in Lactococcus lactis NZ9000 by isothermal calorimetric titration method.
For test [6], the target named is Thiamine transporter ThiT (Lactococcus lactis subsp. cremoris (strain MG1363), UniProt A2RI47, W34A). Kind of test: Binding affinity to Lactococcus lactis MG1363 N-terminal His8-tagged ThiT Trp34Ala mutant expressed in Lactococcus lactis NZ9000 incubated for 5 secs measured over 20 secs by fluorescence spectrophotometric method.
For test [7], the target named is Thiamine transporter ThiT (Lactococcus lactis subsp. cremoris (strain MG1363), UniProt A2RI47, H125N). Kind of test: Binding affinity to Lactococcus lactis MG1363 N-terminal His8-tagged ThiT His125Asn mutant expressed in Lactococcus lactis NZ9000 by isothermal calorimetric titration method.
The target in test [8] is Thiamine transporter ThiT (Lactococcus lactis subsp. cremoris (strain MG1363), UniProt A2RI47, E84A). Kind of test: Binding affinity to Lactococcus lactis MG1363 N-terminal His8-tagged ThiT Glu84Ala mutant expressed in Lactococcus lactis NZ9000 by isothermal calorimetric titration method.
Chain of Thiamine transporter ThiT (Lactococcus lactis subsp. cremoris (strain MG1363), UniProt A2RI47, E84A) (A2RI47 whole entry E84A): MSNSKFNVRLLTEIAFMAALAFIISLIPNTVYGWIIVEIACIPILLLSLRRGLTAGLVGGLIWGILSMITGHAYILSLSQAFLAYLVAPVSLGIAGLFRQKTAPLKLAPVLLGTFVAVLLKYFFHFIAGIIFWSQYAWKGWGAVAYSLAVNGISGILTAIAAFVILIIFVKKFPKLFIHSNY

Chain of Thiamine transporter ThiT (Lactococcus lactis subsp. cremoris (strain MG1363), UniProt A2RI47, W34A) (A2RI47 whole entry W34A): as the sequence (A2RI47 whole entry E84A) above, with W34A, A84E counted along it
Chain of Thiamine transporter ThiT (Lactococcus lactis subsp. cremoris (strain MG1363), UniProt A2RI47, H125N) (A2RI47 whole entry H125N): as the sequence (A2RI47 whole entry E84A) above, with A84E, H125N counted along it
Chain of Thiamine transporter ThiT (Lactococcus lactis subsp. cremoris (strain MG1363), UniProt A2RI47, E84D) (A2RI47 whole entry E84D): as the sequence (A2RI47 whole entry E84A) above, with A84D counted along it
Chain of Thiamine transporter ThiT (Lactococcus lactis subsp. cremoris (strain MG1363), UniProt A2RI47, H125A) (A2RI47 whole entry H125A): as the sequence (A2RI47 whole entry E84A) above, with A84E, H125A counted along it
Chain of Thiamine transporter ThiT (Lactococcus lactis subsp. cremoris (strain MG1363), UniProt A2RI47, E84Q) (A2RI47 whole entry E84Q): as the sequence (A2RI47 whole entry E84A) above, with A84Q counted along it

Broadly, the Kd is the constant that tells how readily two partners part at equilibrium. High values mean a looser complex, low ones a tighter complex. `Cc1ncc(Cc2csc(CCOC(=O)c3c[nH]c4ccccc34)c2C)c(N)n1` gave a Kd in test [1] of 20.1 nM. Regarding `Cc1ncc(Cc2csc(CCS[C@@H]3O[C@H](CO)[C@@H](O)[C@H](O)[C@H]3O)c2C)c(N)n1`, the affinity in test [1], expressed as Kd, was 183 nM. On the same count and under the same terms, the result for `Cc1ncc(C[n+]2cccc(CCO)c2C)c(N)n1` reads 0.18 nM. On to `Cc1cc(CO)cc(Cc2cnc(C)nc2N)c1`, for which, in test [2], the Kd turned out to be 1.99 µM. For `Cc1ncc(Cc2csc(CNCc3ccccn3)c2C)c(N)n1`, in test [1], the Kd is 96.7 nM. Still for that read-out and setting: the result for `Cc1ncc(Cc2csc(CNCC(c3ccccc3)c3ccccc3)c2C)c(N)n1` reads 168 nM; that for `Cc1ncc(Cc2cccc(CCO)c2)c(N)n1`, 266 nM. Consider `Cc1ncc(C[n+]2csc(CCO)c2C)c(N)n1` [THIAMINE ION], for which the Kd was 13.6 µM in test [3]; 0.122 nM in test [1]; 14.9 nM in test [4]; 2.21 nM in test [5]; 0.35 nM in test [6]; 13.6 nM in test [7]. In test [8], this compound displayed a Kd of 3.65 µM. The compound `Cc1ncc(Cc2cccc(CO)c2)c(N)n1` returned an equilibrium dissociation constant (Kd) in test [1] of 528 nM. This lies in the sub-micromolar range. As for `Cc1ncc(Cc2csc(COP(=O)(O)OP(=O)(O)O)c2C)c(N)n1`, binding in test [1] was put at a Kd of 209 nM. This Kd is about 2.5-fold lower than that of the compound before.

In test [2], `Cc1ncc(Cc2csc(CNCC34CC5CC(CC(C5)C3)C4)c2C)c(N)n1` yielded a Kd of 49.8 µM. The same measure, in the same setting: with `Cc1ncc(Cc2cc(CO)cc(C(F)(F)F)c2)c(N)n1` the figure was 2.3 µM. For the compound `Cc1ncc(Cc2csc(COCc3ccccc3)c2C)c(N)n1`, in test [1], the Kd is 40.3 nM.

As for `Cc1ncc(C[n+]2csc(CCO[P@](=O)(O)OP(=O)(O)O)c2C)c(N)n1` [COCARBOXYLASE], in test [1], the affinity, expressed as Kd, was 1.6 nM. Turning to `Cc1ncc(Cn2cc(CCO)nn2)c(N)n1`, the Kd in test [2] was 28.6 µM.
